Assay in all cases: growth of human tumour cells (NCI), 48 h
For experiment [1], the system named is A498.
Experiment [2] relates to COLO 205.
Experiment [3] deals with HT-29.
In experiment [4] the test system is SK-MEL-5.
For experiment [5], the system named is Hs-578T.
The test system of experiment [6] is SF-539.
In experiment [7] the test system is M14.
The subject of experiment [8] is NCI-H522.
The subject of experiment [9] is HOP-92.
The test system of experiment [10] is KM12.
The subject of experiment [11] is SK-MEL-28.
The test system of experiment [12] is DU-145.
Experiment [13] has as its system OVCAR-8.
For experiment [14], the system named is K562.
Experiment [15] has as its system MDA-MB-231.
Experiment [16] deals with SR.
Experiment [17] has as its system NCI/ADR-RES.
Experiment [18] relates to SNB-75.
The test system of experiment [19] is HCT-15.
Experiment [20] deals with SW-620.

Structures are written as SMILES.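 Tested at 5 concentrations; 48 h exposure; 96-well plates; endpoints linearly interpolated, else capped at highest concentration. Here, GI50 denotes the concentration required for 50% inhibition of growth.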 Activity calls are given as the source filed them. Cut-off read from the data, not from the text of the source: active = GI50 up to about 1.1 µM and inactive = higher.

`C/C(=N\Nc1nc2ccccc2[nH]1)c1ccncn1`: the GI50 in experiment [1] is 0.237 µM (active); in experiment [2] it was 0.128 µM (active); in [3] it was 0.0818 µM (active); in [4] it was 0.157 µM (active); in experiment [5], 80 µM (inactive); in experiment [6], 0.0394 µM (active). For the same compound, the GI50 in [7] is 0.0951 µM (active); in [8], 0.104 µM (active); in [9], 0.0715 µM (active); in [10], 0.27 µM (active); in [11], 0.396 µM (active); in [12], 0.0843 µM (active). In addition, the GI50 was 0.124 µM (active) in [13]; 0.681 µM (active) in [14]; 3.64 µM (inactive) in experiment [15]; 0.0811 µM (active) in experiment [16]; 0.153 µM (active) in experiment [17]; 0.352 µM (active) in [18]. For the same compound, the GI50 in experiment [19] is 0.161 µM; in experiment [20], 0.134 µM (active).

Take `CCOP(=O)(C/C=C/Cn1nc(Br)c(=O)[nH]c1=O)OCC`: the GI50 in experiment [1], in experiment [2], in experiment [3], in experiment [4], in experiment [5] and in experiment [6] was > 100 µM (inactive) each time. The GI50 in experiment [7], in experiment [8], in experiment [9], in [10], in experiment [11] and in experiment [12] was > 100 µM (inactive) in each case. The GI50 in experiment [13], in experiment [14], in [15], in [16], in experiment [17] and in experiment [18] was > 100 µM (inactive) throughout. The GI50 is more than 100 µM in [19] and > 100 µM (inactive) in [20].

As to `N=c1nc2n(cc1F)[C@@H]1O[C@H](CO)[C@@H](O)[C@@H]1O2`, the GI50 in experiment [1] was 13.4 µM (inactive); in experiment [2], 14 µM (inactive); in [3] it was 34.4 µM (inactive); in [4], 35.4 µM (inactive); in [5], > 100 µM (inactive); in experiment [6] it was 53 µM (inactive). Besides, the GI50 in [7] is 1.45 µM (inactive); in experiment [8] it was 4.18 µM (inactive); in [9] it was 11.3 µM (inactive); in experiment [10] it was > 100 µM (inactive); in experiment [11], > 63.7 µM (inactive); in experiment [12], 0.971 µM (active). Also, the GI50 is 1.04 µM (active) in [13]; 4.33 µM (inactive) in [14]; > 100 µM (inactive) in experiment [15]; 0.424 µM (active) in [16]; 9.59 µM (inactive) in experiment [17]; > 70.6 µM (inactive) in experiment [18]. The GI50 in experiment [19] was more than 90.2 µM; in experiment [20] it was > 20.5 µM (inactive).

These data come from ChEMBL document CHEMBL1201862, “PubChem BioAssay data set” (2004).
